These results are taken from patent publication US10259810B2, “N-sulfonylated pyrazolo[3,4-b]pyridin-6-carboxamides and method of use” (AbbVie S.à.r.l., priority 2015, dated 2019).

The target in experiment [1] is T1, ΔF508-CFTR (Homo sapiens, UniProt P13569, DEL508-508).
T1 construct: host or cells: CFBE41o-, doxycycline-inducible
Put plainly: CFTR cell surface levels using HRP-tagged ΔF508-CFTR expressing CFBE cells, in the presence of a co-corrector. The format is cell-based. As to conditions: HRP-tagged ΔF508-CFTR CFBE cells, in the presence of 3 μM co-corrector; for EC50: read-out: EC50. The essentials:
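Chemiluminescent read-out of surface HRP (15 min, dark) after PBS washes. Activity is normalized as 100×(sample−DMSO)/(3 μM co-corrector alone−DMSO).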

In experiment [2] the target is T1, ΔF508-CFTR. Put plainly: CFTR cell surface levels using HRP-tagged ΔF508-CFTR expressing CFBE cells, intrinsic corrector capacity. Particulars: HRP-tagged ΔF508-CFTR expressing CFBE41o- cells, compound alone (intrinsic corrector capacity), 20 hours at 33° C.; for EC50: read-out: EC50. On the set-up: % Activation: concentration or dose not given beside the values. It counts as cell-based. The essentials: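 Surface ΔF508-CFTR was measured as HRP chemiluminescence from an extracellular-loop-4 tag, expressed as percent activity between DMSO and a […] corrector control.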

T1 sequence (P13569 with tags, fused parts or gaps DEL508-508): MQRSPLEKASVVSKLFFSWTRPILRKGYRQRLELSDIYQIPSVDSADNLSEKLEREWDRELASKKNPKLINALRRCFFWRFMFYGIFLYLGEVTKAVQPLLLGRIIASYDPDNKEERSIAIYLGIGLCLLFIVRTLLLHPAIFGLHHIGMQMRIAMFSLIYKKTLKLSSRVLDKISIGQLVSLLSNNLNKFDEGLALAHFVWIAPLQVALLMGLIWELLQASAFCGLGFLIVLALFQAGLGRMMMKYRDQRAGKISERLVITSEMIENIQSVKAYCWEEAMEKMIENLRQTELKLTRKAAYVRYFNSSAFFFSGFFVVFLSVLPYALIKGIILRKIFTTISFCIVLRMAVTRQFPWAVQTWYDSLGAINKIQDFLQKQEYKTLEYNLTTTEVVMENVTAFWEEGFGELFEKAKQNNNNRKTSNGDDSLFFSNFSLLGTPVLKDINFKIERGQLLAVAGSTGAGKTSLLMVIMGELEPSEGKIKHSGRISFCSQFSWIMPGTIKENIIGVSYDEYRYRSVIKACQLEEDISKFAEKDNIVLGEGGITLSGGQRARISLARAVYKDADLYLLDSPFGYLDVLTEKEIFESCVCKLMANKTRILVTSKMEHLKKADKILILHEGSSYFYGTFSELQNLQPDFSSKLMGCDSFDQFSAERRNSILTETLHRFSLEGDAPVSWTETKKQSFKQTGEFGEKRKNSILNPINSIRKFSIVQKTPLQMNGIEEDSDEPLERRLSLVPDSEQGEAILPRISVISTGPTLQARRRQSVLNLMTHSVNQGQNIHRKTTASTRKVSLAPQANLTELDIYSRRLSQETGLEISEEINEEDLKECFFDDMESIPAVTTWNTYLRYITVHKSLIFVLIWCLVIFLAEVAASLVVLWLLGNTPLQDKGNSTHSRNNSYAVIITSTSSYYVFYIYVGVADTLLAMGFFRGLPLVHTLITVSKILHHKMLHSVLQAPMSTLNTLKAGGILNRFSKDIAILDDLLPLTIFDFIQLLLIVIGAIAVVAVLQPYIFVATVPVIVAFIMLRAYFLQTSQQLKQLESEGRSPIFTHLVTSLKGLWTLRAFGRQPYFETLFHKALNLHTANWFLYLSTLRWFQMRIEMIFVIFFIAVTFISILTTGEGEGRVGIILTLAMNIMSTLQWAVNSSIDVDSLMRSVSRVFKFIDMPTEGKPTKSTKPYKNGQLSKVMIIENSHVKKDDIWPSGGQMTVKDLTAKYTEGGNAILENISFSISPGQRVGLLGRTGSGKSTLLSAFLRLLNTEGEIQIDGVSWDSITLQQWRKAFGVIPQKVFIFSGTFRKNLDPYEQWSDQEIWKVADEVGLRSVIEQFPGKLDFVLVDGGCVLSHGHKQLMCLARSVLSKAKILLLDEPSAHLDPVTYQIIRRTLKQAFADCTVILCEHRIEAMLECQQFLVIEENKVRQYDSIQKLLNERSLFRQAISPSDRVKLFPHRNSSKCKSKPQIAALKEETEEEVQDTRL

On to `CS(=O)(=O)NC(=O)c1cc(-c2ccc(N3CCC(C#N)CC3)nc2)c2c(C3CC(F)C3)nn(-c3ccccc3)c2n1` (centres unmarked) [Compound 197, 4-[6-(4-cyanopiperidin-1-yl)pyridin-3-yl]-3-(3-fluorocyclobutyl)-N-(methanesulfonyl)-1-phenyl-1H-pyrazolo[3,4-b]pyridine-6-carboxamide], for which the “% Activation” value in experiment [1] is given as 390.8%; in experiment [2], 220.2%. Besides, the values for the EC50 in experiment [1] and in experiment [2] were 0.194 µM and 0.397 µM, respectively.
The like results for `CS(=O)(=O)NC(=O)c1cc(N2CCC3(C2)CC3(F)F)c2c(C3CCC3)nn(-c3ccccc3)c2n1` (centres unmarked) [Compound 202, 3-cyclobutyl-4-(1,1-difluoro-5-azaspiro[2.4]heptan-5-yl)-N-(methanesulfonyl)-1-phenyl-1H-pyrazolo[3,4-b]pyridine-6-carboxamide] were, in that order, 299.4%, 147.23%, 0.255 µM and 0.595 µM.
Regarding `CS(=O)(=O)NC(=O)c1cc(N2CC3(CCCCO3)C2)c2c(C3CCC3)nn(-c3ccccc3)c2n1` [Compound 203, 3-cyclobutyl-N-(methanesulfonyl)-4-(5-oxa-2-azaspiro[3.5]nonan-2-yl)-1-phenyl-1H-pyrazolo[3,4-b]pyridine-6-carboxamide], in experiment [1], the “% Activation” value came to 224.63% and the EC50 (as a rule, the concentration needed to bring the measured effect to its halfway point) was determined as 0.328 µM. In addition, in experiment [2], the “% Activation” value is 82.59% and the 50% effective concentration (EC50) stood at 1.02 µM.
Take `CS(=O)(=O)NC(=O)c1cc(N2CC3(CCOCC3)C2)c2c(C3CCC3)nn(-c3ccccc3)c2n1` [Compound 204, 3-cyclobutyl-N-(methanesulfonyl)-4-(7-oxa-2-azaspiro[3.5]nonan-2-yl)-1-phenyl-1H-pyrazolo[3,4-b]pyridine-6-carboxamide]: in experiment [1], the “% Activation” value was found to be 288.6% and the EC50 stood at 0.49 µM. Moreover, in experiment [2], the “% Activation” value is reported as 117.6% and the EC50 was 0.978 µM.
Taken in the same sequence, the figures for `CS(=O)(=O)NC(=O)c1cc(N2CCCC3(CC3)C2)c2c(C3CCC3)nn(-c3ccccc3)c2n1` [Compound 205, 4-(5-azaspiro[2.5]octan-5-yl)-3-cyclobutyl-N-(methanesulfonyl)-1-phenyl-1H-pyrazolo[3,4-b]pyridine-6-carboxamide] were 416.4%, 0.856 µM, 208.5% and 0.956 µM.
The like results for `COCCN(C)c1cc(C(=O)NS(C)(=O)=O)nc2c1c(C1CCC1)nn2-c1ccccc1` [Compound 206, 3-cyclobutyl-N-(methanesulfonyl)-4-[(2-methoxyethyl)(methyl)amino]-1-phenyl-1H-pyrazolo[3,4-b]pyridine-6-carboxamide] were, in that order, 387.03%, 0.89 µM, 169.03% and 1.4 µM.
Taken in the same sequence, the figures for `COC1CCN(c2cc(C(=O)NS(=O)(=O)C3CCN(C(=O)OCc4ccccc4)CC3)nc3c2c(C2CCC2)nn3-c2ccccc2)CC1` [Compound 208, benzyl 4-{[3-cyclobutyl-4-(4-methoxypiperidin-1-yl)-1-phenyl-1H-pyrazolo[3,4-b]pyridine-6-carbonyl]sulfamoyl}piperidine-1-carboxylate] were 419.15%, 0.364 µM, 190.55% and 0.402 µM.
As to `CS(=O)(=O)NC(=O)c1cc(-c2ccc(N3CCC(C#N)CC3)nc2)c2c(n1)n(-c1ccccc1)nc2[C@H]1C[C@@H](F)C1` [Compound 209, 4-[6-(4-cyanopiperidin-1-yl)pyridin-3-yl]-3-(cis-3-fluorocyclobutyl)-N-(methanesulfonyl)-1-phenyl-1H-pyrazolo[3,4-b]pyridine-6-carboxamide], in experiment [1], the “% Activation” value turned out to be 393.6% and the EC50 stood at 0.231 µM. Also, in experiment [2], the “% Activation” value was determined as 247.6% and the EC50 worked out at 0.381 µM.
